The values below come from patent US9493444B2 (Merck Patent GmbH, priority 2012, dated 2016).

This assay has as its system Wnt pathway (TCF-dependent transcription in HEK293 luciferase reporter cell line with ER-DSH construct). Put plainly: Cellular assay for Wnt pathway activity (luciferase reporter). It is filed as cell-based. The settings on record: Homo sapiens; Wnt pathway inhibition, HEK293 luciferase reporter cells (ER-DSH, TCF promoter), 24 hours incubation, estrogen-induced. The protocol:
1. Cellular Assay for Wnt Pathway Activity
Compounds were tested for their Wnt pathway inhibitory activities using a luciferase reporter cell based assay. A HEK293 luciferase reporter cell line was used which contained an Estrogen Receptor-Dishevelled (ER-DSH) construct and a T-Cell Factor (TCF) dependent gene promoter luciferase construct.
Compounds, in concentrations from 30 μM down to 1 nM, were incubated for 24 hours on the cells, which were induced for TCF-dependent transcription by the addition of estrogen (10). Luciferase activities were determined using the ONE GLO Luciferase Assay System (Promega) and the ENVISION microplate reader (Perkin Elmer). For analysis, the obtained data were normalized against the untreated vehicle control and fitted for determination of the IC50 values using the Assay Explorer software (Accelrys).
On the technique in general: In a reporter assay the amount or activity of a reporter protein is the signal.
Usually IC50 stands for the concentration that gives 50% inhibition. Low readings indicate higher potency, high ones lower potency. As to `CC(=O)N(C)CCN(C)c1cncc(Oc2ccc(S(N)(=O)=O)cc2)n1` [Compound 101, N-Methyl-N-(2-[methyl-[6-(4-sulfamoyl-phenoxy)-pyrazin-2-yl]-amino}-ethyl)-acetamide], the IC50 was 200 to 1000 nM.

With `CCN(CCN(CC)c1cncc(Oc2ccc(F)cc2)n1)C(C)=O` [Compound 102, N-Ethyl-N-(2-{ethyl-[6-(4-fluoro-phenoxy)-pyrazin-2-yl]-amino}-ethyl)-acetamide], the half-inhibitory concentration (IC50) lay within 200 to 1000 nM.

In turn, `CCN(CCN(CC)c1cncc(Oc2ccc(OC)cc2)n1)C(C)=O` [Compound 103, N-Ethyl-N-(2-{ethyl-[6-(4-methoxy-phenoxy)-pyrazin-2-yl]-amino}-ethyl)-acetamide] returned an IC50 of 200 to 1000 nM.

`CC(=O)N(C)CCN(C)c1cncc(OCc2ccc(F)cc2)n1` [Compound 104, N-(2-{[6-(4-Fluoro-benzyloxy)-pyrazin-2-yl]-methyl-amino}-ethyl)-N-methyl-acetamide] displayed an IC50 of 1000 to 10000 nM.

`CC(=O)N(C)CCN(C)c1cncc(Oc2ccc(F)cc2F)n1` [Compound 105, N-(2-{[6-(2,4-Difluoro-phenoxy)-pyrazin-2-yl]-methyl-amino}-ethyl)-N-methyl-acetamide] came in with an IC50 of 200 to 1000 nM.

The compound `CC(=O)N(C)CCN(C)c1cncc(Oc2ccc3[nH]ccc3c2)n1` [Compound 106, N-(2-{[6-(1H-Indol-5-yloxy)-pyrazin-2-yl]-methyl-amino}-ethyl)-N-methyl-acetamide] came in with an IC50 of 200 to 1000 nM.

`CC(=O)N(C)CCN(C)c1cncc(Oc2ccc3c(c2)C(=O)CC3)n1` [Compound 108, N-Methyl-N-(2-{methyl-[6-(3-oxo-indan-5-yloxy)-pyrazin-2-yl]-amino}-ethyl)-acetamide] came in with an IC50 of 1000 to 10000 nM.

As for `COc1ccc(Oc2cncc(N(C)CCN(C)C(C)=O)n2)c(F)c1` [Compound 109, N-(2-{[6-(2-Fluoro-4-methoxy-phenoxy)-pyrazin-2-yl]-methyl-amino}-ethyl)-N-methyl-acetamide], the half-maximal inhibitory concentration (IC50) fell in the range of 200 to 1000 nM.

`CC(=O)N(C)CCN(C)c1cncc(Oc2ccc(Cl)cc2F)n1` [Compound 110, N-(2-{[6-(4-Chloro-2-fluoro-phenoxy)-pyrazin-2-yl]-methyl-amino}-ethyl)-N-methyl-acetamide] displayed a 50% inhibitory concentration (IC50) of 200 to 1000 nM.

`CC(=O)N(C)CCN(C)c1cncc(Oc2ccc(Br)c(C)c2)n1` [Compound 111, N-(2-{[6-(4-Bromo-3-methyl-phenoxy)-pyrazin-2-yl]-methyl-amino}-ethyl)-N-methyl-acetamide] came in with an IC50 of 200 to 1000 nM.

Regarding `CC(=O)N(C)CCN(C)c1cncc(Oc2ccc3ccncc3c2)n1` [Compound 112, N-(2-{[6-(Isoquinolin-7-yloxy)-pyrazin-2-yl]-methyl-amino}-ethyl)-N-methyl-acetamide], the 50% inhibitory concentration (IC50) is under 200 nM.

In the case of `CC(=O)N(C)CCN(C)c1cncc(Oc2c(F)cc(Br)cc2F)n1` [Compound 113, N-(2-{[6-(4-Bromo-2,6-difluoro-phenoxy)-pyrazin-2-yl]-methyl-amino}-ethyl)-N-methyl-acetamide], the IC50 was under 200 nM.

`CC(=O)N(C)CCN(C)c1cncc(Oc2cccc(N(C)C)c2)n1` [Compound 114, N-(2-{[6-(3-Dimethyl-amino-phenoxy)-pyrazin-2-yl]-methyl-amino}-ethyl)-N-methyl-acetamide] came in with a half-maximal inhibitory concentration (IC50) of 1000 to 10000 nM.

Turning to `CCOC(=O)c1ccc(Oc2cncc(N(C)CCN(C)C(C)=O)n2)cc1` [Compound 115, 4-(6-{[2-(Acetyl-methyl-amino)-ethyl]-methyl-amino}-pyrazin-2-yloxy)-benzoic acid ethyl ester], the IC50 fell in the range of 200 to 1000 nM.

The compound `CN(CCN1CCCCC1=O)c1cncc(Oc2ccc(F)cc2)n1` [Compound 116, 1-(2-{[6-(4-Fluoro-phenoxy)-pyrazin-2-yl]-methyl-amino}-ethyl)-piperidin-2-one] displayed an IC50 of under 200 nM.

As for `CC(=O)N(C)CCN(C)c1cncc(Oc2ccc(CC(N)=O)cc2)n1` [Compound 117, 2-[4-(6-{[2-(Acetyl-methyl-amino)-ethyl]-methyl-amino}-pyrazin-2-yloxy)-phenyl]-acetamide], the half-inhibitory concentration (IC50) is 200 to 1000 nM.
